Results published in PubChem BioAssay (NCI).
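Exposure lasted 48 hours, with cells grown in 96-well plates and compounds tested at five concentrations. At the TGI there is no net growth.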

How the values were obtained:
Test in all cases: NCI anticancer screen, dose series, 48 h
[1] = tested on: SF-268 CNS
[2] = tested on: OVCAR-8 ovarian
[3] = tested on: NCI-H23 lung
[4] = tested on: SR leukemia
[5] = tested on: K-562 leukemia
[6] = tested on: HOP-62 NSCLC
[7] = tested on: SNB-19 CNS
[8] = tested on: SNB-75 CNS
[9] = tested on: BT-549 breast
[10] = tested on: 786-0 renal
[11] = tested on: HOP-92 NSCLC
[12] = tested on: MCF7 breast
[13] = tested on: TK-10 renal
[14] = tested on: DU-145 prostate
[15] = tested on: MDA-N
[16] = tested on: A549 NSCLC
[17] = tested on: SK-MEL-28 melanoma
[18] = tested on: SF-295 CNS
[19] = tested on: OVCAR-4 ovarian
[20] = tested on: LOX IMVI melanoma
[21] = tested on: NCI-H460 lung
[22] = tested on: HCT-116 colon
[23] = tested on: SW-620 colon
[24] = tested on: NCI-H226 lung
[25] = tested on: HT29 colon
[26] = tested on: PC-3 prostate
[27] = tested on: RXF 393 renal
[28] = tested on: M14 melanoma
[29] = tested on: UO-31 renal
[30] = tested on: A498 renal
[31] = tested on: SK-MEL-5 melanoma
[32] = tested on: UACC-257 melanoma
[33] = tested on: CCRF-CEM leukemia
[34] = tested on: MDA-MB-231 breast
[35] = tested on: OVCAR-3 ovarian
[36] = tested on: NCI/ADR-RES ovarian
[37] = tested on: T-47D breast
[38] = tested on: IGROV1 ovarian
[39] = tested on: COLO 205 colon
[40] = tested on: UACC-62 melanoma
[41] = tested on: HS 578T breast
[42] = tested on: KM12 colon
[43] = tested on: SF-539 CNS
[44] = tested on: MOLT-4 leukemia
[45] = tested on: HCC-2998 colon
[46] = tested on: CAKI-1 renal
[47] = tested on: HL-60(TB) leukemia
[48] = tested on: MALME-3M melanoma
[49] = tested on: U251 CNS
[50] = tested on: MDA-MB-435
[51] = tested on: EKVX NSCLC
[52] = tested on: SK-OV-3 ovarian
[53] = tested on: NCI-H522 lung
[54] = tested on: HCT-15 colon
[55] = tested on: RPMI-8226 leukemia
[56] = tested on: ACHN renal
[57] = tested on: SN12C renal
[58] = tested on: SK-MEL-2 melanoma
[59] = tested on: OVCAR-5 ovarian

SMILES: CCCCN(C(=O)c1ccccc1)C1CCC(=O)c2[nH]c3ccccc3c21 (stereo not given)
- TGI [1]: > 100 µM
- TGI [2]: > 100 µM
- TGI [3]: > 100 µM
- TGI [4]: 41.4 µM
- TGI [5]: > 100 µM
- TGI [6]: > 100 µM
- TGI [7]: > 100 µM
- TGI [8]: 75.2 µM
- TGI [9]: > 100 µM
- TGI [10]: > 100 µM
- TGI [11]: 84.5 µM
- TGI [12]: > 100 µM
- TGI [13]: > 100 µM
- TGI [14]: > 100 µM
- TGI [15]: > 100 µM
- TGI [16]: > 100 µM
- TGI [17]: > 100 µM
- TGI [18]: > 100 µM
- TGI [19]: > 100 µM
- TGI [20]: > 100 µM
- TGI [21]: > 100 µM
- TGI [22]: > 100 µM
- TGI [23]: > 100 µM
- TGI [24]: 93.4 µM
- TGI [25]: > 100 µM
- TGI [26]: > 100 µM
- TGI [27]: 70 µM
- TGI [28]: > 100 µM
- TGI [29]: > 100 µM
- TGI [30]: > 100 µM
- TGI [31]: 49.9 µM
- TGI [32]: > 100 µM
- TGI [33]: > 100 µM
- TGI [34]: > 100 µM
- TGI [35]: > 100 µM
- TGI [36]: > 100 µM
- TGI [37]: 89.9 µM
- TGI [38]: > 100 µM
- TGI [39]: 48.1 µM
- TGI [40]: > 100 µM
- TGI [41]: 51.2 µM
- TGI [42]: > 100 µM
- TGI [43]: > 100 µM
- TGI [44]: > 100 µM
- TGI [45]: > 100 µM
- TGI [46]: 84 µM
- TGI [47]: 29.6 µM
- TGI [48]: > 100 µM
- TGI [49]: > 100 µM
- TGI [50]: > 100 µM
- TGI [51]: > 100 µM
- TGI [52]: > 100 µM
- TGI [53]: > 100 µM
- TGI [54]: > 100 µM
- TGI [55]: 68.8 µM
- TGI [56]: > 100 µM
- TGI [57]: > 100 µM

SMILES: CC1CC(C)CN(S(=O)(=O)c2cc(Cl)c(Oc3ccc([N+](=O)[O-])cc3Cl)c(Cl)c2)C1 (stereo not given)
- TGI [1]: > 100 µM
- TGI [2]: > 100 µM
- TGI [3]: > 100 µM
- TGI [4]: > 100 µM
- TGI [5]: > 100 µM
- TGI [6]: > 100 µM
- TGI [7]: > 100 µM
- TGI [8]: > 100 µM
- TGI [9]: > 100 µM
- TGI [10]: > 100 µM
- TGI [11]: > 100 µM
- TGI [12]: > 100 µM
- TGI [13]: > 100 µM
- TGI [14]: > 100 µM
- TGI [15]: > 100 µM
- TGI [16]: > 100 µM
- TGI [17]: > 100 µM
- TGI [18]: > 100 µM
- TGI [19]: > 100 µM
- TGI [20]: > 100 µM
- TGI [21]: > 100 µM
- TGI [22]: > 100 µM
- TGI [23]: > 100 µM
- TGI [24]: > 100 µM
- TGI [25]: > 100 µM
- TGI [26]: > 100 µM
- TGI [58]: > 100 µM
- TGI [27]: > 100 µM
- TGI [28]: > 100 µM
- TGI [29]: > 100 µM
- TGI [30]: > 100 µM
- TGI [31]: > 100 µM
- TGI [32]: > 100 µM
- TGI [34]: > 100 µM
- TGI [59]: > 100 µM
- TGI [35]: > 100 µM
- TGI [36]: > 100 µM
- TGI [37]: > 100 µM
- TGI [38]: > 100 µM
- TGI [39]: > 100 µM
- TGI [40]: > 100 µM
- TGI [41]: > 100 µM
- TGI [42]: > 100 µM
- TGI [43]: > 100 µM
- TGI [44]: > 100 µM
- TGI [45]: > 100 µM
- TGI [46]: > 100 µM
- TGI [47]: > 100 µM
- TGI [48]: > 100 µM
- TGI [49]: > 100 µM
- TGI [50]: > 100 µM
- TGI [51]: > 100 µM
- TGI [52]: > 100 µM
- TGI [53]: > 100 µM
- TGI [54]: > 100 µM
- TGI [55]: > 100 µM
- TGI [56]: > 100 µM
- TGI [57]: > 100 µM
